Assay results published in patent US11547697B2, “Heterocyclic compounds and uses thereof” (MILLENNIUM PHARMACEUTICALS, INC., priority 2009, dated 2023).
Where two headings read alike, the source gives them in different places. Values belong to the compound of their own block, whether it stands above or below them.

Tests used:
Type in all cases: biochemical
p110α/p85α = p110α/p85α (Homo sapiens (Human), UniProt P42336); assay: PI 3-Kinase (human) HTRF assay, p110α/p85α
p110β/p85α = p110β/p85α (Homo sapiens (Human), UniProt P42338); assay: PI 3-Kinase (human) HTRF assay, p110β/p85α
Sequence of p110β/p85α (P42338 whole entry): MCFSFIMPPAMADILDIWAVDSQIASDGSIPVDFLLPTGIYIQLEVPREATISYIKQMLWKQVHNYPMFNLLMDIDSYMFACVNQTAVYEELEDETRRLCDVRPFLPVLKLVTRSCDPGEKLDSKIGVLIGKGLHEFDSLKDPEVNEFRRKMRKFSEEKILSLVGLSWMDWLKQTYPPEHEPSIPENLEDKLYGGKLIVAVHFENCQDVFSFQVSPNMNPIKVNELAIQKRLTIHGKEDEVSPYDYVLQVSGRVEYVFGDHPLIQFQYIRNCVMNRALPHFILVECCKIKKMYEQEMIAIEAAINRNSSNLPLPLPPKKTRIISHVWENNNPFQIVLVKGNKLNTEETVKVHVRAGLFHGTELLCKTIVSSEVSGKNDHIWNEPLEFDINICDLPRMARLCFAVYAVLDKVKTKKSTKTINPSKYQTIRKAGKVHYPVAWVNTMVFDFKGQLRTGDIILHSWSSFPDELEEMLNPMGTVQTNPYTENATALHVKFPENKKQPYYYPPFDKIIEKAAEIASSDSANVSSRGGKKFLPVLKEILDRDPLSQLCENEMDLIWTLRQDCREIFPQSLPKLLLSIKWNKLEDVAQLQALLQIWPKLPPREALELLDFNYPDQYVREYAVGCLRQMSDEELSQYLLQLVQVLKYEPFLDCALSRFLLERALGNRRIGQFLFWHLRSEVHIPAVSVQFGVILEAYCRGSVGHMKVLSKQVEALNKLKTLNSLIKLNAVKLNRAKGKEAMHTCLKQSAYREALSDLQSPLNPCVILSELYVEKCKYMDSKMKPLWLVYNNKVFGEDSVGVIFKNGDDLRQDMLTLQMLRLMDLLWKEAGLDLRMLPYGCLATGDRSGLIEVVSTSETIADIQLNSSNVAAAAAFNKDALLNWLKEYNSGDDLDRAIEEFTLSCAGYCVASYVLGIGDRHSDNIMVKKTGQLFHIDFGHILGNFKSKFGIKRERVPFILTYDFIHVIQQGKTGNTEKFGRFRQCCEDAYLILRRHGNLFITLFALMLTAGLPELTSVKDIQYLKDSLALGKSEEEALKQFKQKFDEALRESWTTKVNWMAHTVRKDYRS
Sequence of p110β/p85α (P27986 whole entry partner): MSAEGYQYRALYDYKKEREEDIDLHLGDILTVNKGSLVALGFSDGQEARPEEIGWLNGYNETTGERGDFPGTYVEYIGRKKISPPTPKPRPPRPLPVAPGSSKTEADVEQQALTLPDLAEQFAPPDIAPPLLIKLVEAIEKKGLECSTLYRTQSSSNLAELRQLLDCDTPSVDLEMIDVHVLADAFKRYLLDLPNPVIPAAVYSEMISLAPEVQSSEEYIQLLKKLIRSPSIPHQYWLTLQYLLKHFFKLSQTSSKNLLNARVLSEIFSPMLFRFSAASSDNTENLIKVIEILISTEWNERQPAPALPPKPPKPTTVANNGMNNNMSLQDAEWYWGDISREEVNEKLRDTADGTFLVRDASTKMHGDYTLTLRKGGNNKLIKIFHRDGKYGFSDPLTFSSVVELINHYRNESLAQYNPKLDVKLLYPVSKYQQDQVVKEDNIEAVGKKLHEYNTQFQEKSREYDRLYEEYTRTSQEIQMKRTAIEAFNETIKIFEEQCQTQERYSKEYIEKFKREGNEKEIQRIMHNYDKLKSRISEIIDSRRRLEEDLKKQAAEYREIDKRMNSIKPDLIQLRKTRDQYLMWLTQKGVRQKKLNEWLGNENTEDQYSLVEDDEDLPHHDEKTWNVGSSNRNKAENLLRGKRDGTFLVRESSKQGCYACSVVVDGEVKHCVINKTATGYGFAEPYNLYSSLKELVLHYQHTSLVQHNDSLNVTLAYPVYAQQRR

p110γ = p110γ (Homo sapiens (Human), UniProt P48736); assay: PI 3-Kinase (human) HTRF assay, p110γ
Sequence of p110γ (P48736 whole entry): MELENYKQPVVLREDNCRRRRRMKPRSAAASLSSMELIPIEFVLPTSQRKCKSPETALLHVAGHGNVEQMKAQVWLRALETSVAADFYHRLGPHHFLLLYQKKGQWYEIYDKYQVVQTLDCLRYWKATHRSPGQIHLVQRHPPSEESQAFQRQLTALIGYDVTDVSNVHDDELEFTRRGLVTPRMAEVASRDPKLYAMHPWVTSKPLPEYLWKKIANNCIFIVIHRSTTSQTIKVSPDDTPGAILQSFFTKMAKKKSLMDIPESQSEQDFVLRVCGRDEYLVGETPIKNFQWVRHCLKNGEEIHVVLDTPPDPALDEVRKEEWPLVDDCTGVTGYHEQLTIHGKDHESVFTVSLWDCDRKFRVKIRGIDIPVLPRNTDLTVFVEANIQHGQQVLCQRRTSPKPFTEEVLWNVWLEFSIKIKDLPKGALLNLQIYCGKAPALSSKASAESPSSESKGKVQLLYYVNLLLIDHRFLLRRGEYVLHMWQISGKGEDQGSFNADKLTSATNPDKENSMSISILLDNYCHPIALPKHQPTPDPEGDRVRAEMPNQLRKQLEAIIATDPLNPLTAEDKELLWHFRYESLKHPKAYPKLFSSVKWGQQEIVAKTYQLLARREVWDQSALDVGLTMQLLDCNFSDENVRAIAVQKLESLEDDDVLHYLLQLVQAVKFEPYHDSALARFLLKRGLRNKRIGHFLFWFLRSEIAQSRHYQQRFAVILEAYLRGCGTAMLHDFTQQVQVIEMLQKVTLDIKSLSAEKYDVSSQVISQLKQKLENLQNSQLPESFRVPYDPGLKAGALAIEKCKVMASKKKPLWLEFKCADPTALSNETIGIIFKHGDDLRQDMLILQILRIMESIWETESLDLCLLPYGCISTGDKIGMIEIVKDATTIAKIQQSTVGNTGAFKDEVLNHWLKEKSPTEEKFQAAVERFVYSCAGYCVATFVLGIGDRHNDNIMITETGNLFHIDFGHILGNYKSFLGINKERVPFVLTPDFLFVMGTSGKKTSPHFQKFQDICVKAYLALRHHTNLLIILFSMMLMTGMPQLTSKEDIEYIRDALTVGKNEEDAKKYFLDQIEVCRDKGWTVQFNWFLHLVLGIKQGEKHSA

[1] = in vitro, read-out: PI3K α IC50
[2] = in vitro, read-out: PI3K β IC50
[3] = in vitro, read-out: PI3K γ IC50

Sequence of p110α/p85α (P42336 whole entry): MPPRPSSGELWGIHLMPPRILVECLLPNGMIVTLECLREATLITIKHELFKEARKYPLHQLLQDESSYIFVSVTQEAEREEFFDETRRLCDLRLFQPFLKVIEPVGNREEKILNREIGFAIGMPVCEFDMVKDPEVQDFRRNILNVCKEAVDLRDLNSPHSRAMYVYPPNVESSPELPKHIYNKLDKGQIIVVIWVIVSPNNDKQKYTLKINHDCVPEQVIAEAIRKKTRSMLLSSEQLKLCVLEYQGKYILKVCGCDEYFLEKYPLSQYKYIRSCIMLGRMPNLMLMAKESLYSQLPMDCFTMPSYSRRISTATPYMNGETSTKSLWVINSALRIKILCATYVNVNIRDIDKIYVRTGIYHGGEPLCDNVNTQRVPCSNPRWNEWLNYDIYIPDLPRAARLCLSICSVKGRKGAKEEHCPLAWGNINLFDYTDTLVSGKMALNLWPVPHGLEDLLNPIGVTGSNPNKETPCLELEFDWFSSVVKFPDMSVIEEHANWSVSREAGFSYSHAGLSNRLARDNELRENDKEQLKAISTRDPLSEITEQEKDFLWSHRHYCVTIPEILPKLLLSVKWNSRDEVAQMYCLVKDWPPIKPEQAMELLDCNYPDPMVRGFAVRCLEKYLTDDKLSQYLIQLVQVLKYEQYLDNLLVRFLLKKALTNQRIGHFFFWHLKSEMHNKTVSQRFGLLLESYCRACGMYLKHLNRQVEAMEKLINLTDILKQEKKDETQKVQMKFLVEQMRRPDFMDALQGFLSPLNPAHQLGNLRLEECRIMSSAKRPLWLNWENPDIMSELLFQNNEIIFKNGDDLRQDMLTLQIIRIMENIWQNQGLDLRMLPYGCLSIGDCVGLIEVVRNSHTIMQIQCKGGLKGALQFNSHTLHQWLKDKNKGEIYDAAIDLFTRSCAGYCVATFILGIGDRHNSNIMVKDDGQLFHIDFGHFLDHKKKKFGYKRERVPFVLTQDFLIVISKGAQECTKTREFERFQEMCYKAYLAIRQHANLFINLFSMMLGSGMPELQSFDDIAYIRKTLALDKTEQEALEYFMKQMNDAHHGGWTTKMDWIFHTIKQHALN
Sequence of p110α/p85α (P27986 whole entry partner): as the sequence (P27986 whole entry partner) above

SMILES: Nc1nc2cc(-c3ccc4ncc(C(=O)N5CCn6cncc6C5)n4c3)ccc2o1 [compound 493]
IC50 (p110α/p85α; read-out: PI3K α In Vitro IC50): < 100 nM
IC50 (p110β/p85α; read-out: PI3K β In Vitro IC50): < 1000 nM
IC50 (p110γ; read-out: PI3K γ In Vitro IC50): < 10000 nM

SMILES: C[C@H]1CN(c2cnc3ccc(-c4ccc5nc(N)sc5c4)cc3n2)CCN1 [compound 308]
IC50 (p110α/p85α; [1]): < 1000 nM
IC50 (p110β/p85α; [2]): < 1000 nM
IC50 (p110γ; [3]): < 10000 nM

SMILES: Nc1nc2cc(-c3ccc4ncc(C(=O)N5CC6(C5)OCCO6)n4c3)ccc2o1 [compound 494]
IC50 (p110α/p85α; read-out: PI3K α In Vitro IC50): < 100 nM
IC50 (p110β/p85α; read-out: PI3K β In Vitro IC50): < 10000 nM
IC50 (p110γ; read-out: PI3K γ In Vitro IC50): < 1000 nM

SMILES: Nc1nc2cc(-c3ccn4ncc(C(=O)N5CCCC5)c4c3)ccc2o1 [compound 346]
IC50 (p110α/p85α; [1]): < 100 nM
IC50 (p110β/p85α; [2]): < 10000 nM
IC50 (p110γ; [3]): < 1000 nM

SMILES: Nc1nc2cc(-c3ccc4ncc(C(=O)N5CC(F)C5)n4c3)ccc2o1 [compound 468]
IC50 (p110α/p85α; read-out: PI3K α In Vitro IC50): < 100 nM
IC50 (p110β/p85α; read-out: PI3K β In Vitro IC50): < 10000 nM
IC50 (p110γ; read-out: PI3K γ In Vitro IC50): < 100 nM

SMILES: C[C@H]1CN(c2cnc3cccc(-c4ccc5nc(N)oc5c4)c3n2)CCN1 [compound 343]
IC50 (p110β/p85α; [2]): < 10000 nM

SMILES: Nc1nc2cc(-c3ccc4c(N)n[nH]c4c3)ccc2o1 [compound 428]
IC50 (p110α/p85α; read-out: PI3K α In Vitro IC50): < 10000 nM
IC50 (p110β/p85α; read-out: PI3K β In Vitro IC50): < 10000 nM
IC50 (p110γ; read-out: PI3K γ In Vitro IC50): < 1000 nM

SMILES: C[C@H]1CN(c2cnc3ccc(-c4ccc5oc(N)nc5c4)cc3c2)CCN1 [compound 396]
IC50 (p110α/p85α; [1]): < 100 nM
IC50 (p110β/p85α; [2]): < 100 nM
IC50 (p110γ; [3]): < 10000 nM

SMILES: Nc1nc2cc(-c3ccc4ncc(C(=O)N5CCOCC5)n4c3)ccc2s1 [compound 126]
IC50 (p110α/p85α; read-out: PI3K α IC50): < 1000 nM
IC50 (p110β/p85α; read-out: PI3K β IC50): < 10000 nM
IC50 (p110γ; read-out: PI3K γ IC50): < 1000 nM

SMILES: CN1CCC(c2cnc3ccc(-c4ccc5oc(N)nc5c4)cc3n2)CC1 [compound 385]
IC50 (p110α/p85α; [1]): < 100 nM
IC50 (p110β/p85α; [2]): < 10000 nM

SMILES: COCCN1CCN(c2cnc3ccc(-c4ccc5oc(N)nc5c4)cc3n2)CC1 [compound 387]
IC50 (p110α/p85α; [1]): < 100 nM
IC50 (p110β/p85α; [2]): < 1000 nM
IC50 (p110γ; [3]): < 1000 nM

SMILES: Nc1nc2cc(-c3ccc4ncc(C(=O)N5CCOCC5)n4c3)cnc2o1 [compound 400]
IC50 (p110α/p85α; read-out: PI3K α In Vitro IC50): < 100 nM
IC50 (p110β/p85α; read-out: PI3K β In Vitro IC50): < 10000 nM
IC50 (p110γ; read-out: PI3K γ In Vitro IC50): < 10000 nM

SMILES: CN1CCN(C(=O)c2cnc3ccc(-c4ccc5sc(N)nc5c4)cn23)CC1 [compound 144]
IC50 (p110α/p85α; read-out: PI3K α IC50): < 1000 nM
IC50 (p110β/p85α; read-out: PI3K β IC50): < 10000 nM

SMILES: Nc1nc2cc(-c3ccc4ncc(C(=O)N5CCOCC5)n4n3)ccc2o1 [compound 105]
IC50 (p110α/p85α; read-out: PI3K α IC50): < 1000 nM
IC50 (p110β/p85α; read-out: PI3K β IC50): < 10000 nM
IC50 (p110γ; read-out: PI3K γ IC50): < 1000 nM

SMILES: Nc1nc2cc(-c3ccc4ncc(C(=O)N5CCNCC5)n4c3)ccc2o1 [compound 111]
IC50 (p110α/p85α; read-out: PI3K α IC50): < 100 nM
IC50 (p110β/p85α; read-out: PI3K β IC50): < 10000 nM

SMILES: CN1CCCN(C(=O)c2cnc3ccc(-c4ccc5oc(N)nc5c4)cn23)CC1 [compound 140]
IC50 (p110α/p85α; read-out: PI3K α IC50): < 1000 nM
IC50 (p110β/p85α; read-out: PI3K β IC50): < 10000 nM

SMILES: Nc1cn2cc(-c3ccc4oc(N)nc4c3)ccc2n1 [compound 245]
IC50 (p110α/p85α; [1]): < 1000 nM
IC50 (p110β/p85α; [2]): < 10000 nM
IC50 (p110γ; [3]): < 1000 nM

SMILES: Nc1nc2cc(-c3ccc4ncn(CCN5CCOCC5)c(=O)c4c3)ccc2o1 [compound 289]
IC50 (p110α/p85α; [1]): < 1000 nM
IC50 (p110β/p85α; [2]): < 10000 nM
IC50 (p110γ; [3]): < 1000 nM

SMILES: O=C(c1cnc2ccc(-c3ccc4oc(Nc5ccccc5)nc4c3)cn12)N1CCOCC1 [compound 407]
IC50 (p110β/p85α; read-out: PI3K β In Vitro IC50): < 10000 nM

SMILES: Nc1nc2cc(-c3ccc4nnc(-c5cccnc5)n4c3)ccc2o1 [compound 300]
IC50 (p110α/p85α; [1]): < 10000 nM
IC50 (p110β/p85α; [2]): < 10000 nM

More lines, now with the values ahead:

IC50 (p110α/p85α; read-out: PI3K α In Vitro IC50): < 10000 nM
IC50 (p110β/p85α; read-out: PI3K β In Vitro IC50): < 10000 nM
SMILES: CNc1nc2cc(-c3ccc4ncc(C(=O)N5CCOCC5)n4c3)ccc2o1 [compound 406]

IC50 (p110α/p85α; [1]): < 1000 nM
IC50 (p110β/p85α; [2]): < 1000 nM
IC50 (p110γ; [3]): < 10000 nM
SMILES: C[C@H]1CN(c2cnc3ccc(-c4ccc5nc(N)oc5c4)cc3n2)CCN1 [compound 309]

IC50 (p110α/p85α; [1]): < 1000 nM
IC50 (p110β/p85α; [2]): < 10000 nM
IC50 (p110γ; [3]): < 1000 nM
SMILES: Cc1cc(-c2ccc3ncc(C(=O)N4CCOCC4)n3c2)cc2nc(N)oc12 [compound 364]

IC50 (p110α/p85α; read-out: PI3K α In Vitro IC50): < 10000 nM
IC50 (p110β/p85α; read-out: PI3K β In Vitro IC50): < 1000 nM
IC50 (p110γ; read-out: PI3K γ In Vitro IC50): < 100 nM
SMILES: Nc1nc2cc(-c3cc(F)c4oc(N)nc4c3)ccc2o1 [compound 432]

IC50 (p110α/p85α; [1]): < 100 nM
IC50 (p110β/p85α; [2]): < 10000 nM
IC50 (p110γ; [3]): < 10000 nM
SMILES: CN(C)C1CN(c2cnc3ccc(-c4ccc5oc(N)nc5c4)cc3n2)C1 [compound 366]

IC50 (p110α/p85α; read-out: PI3K α In Vitro IC50): < 1000 nM
IC50 (p110β/p85α; read-out: PI3K β In Vitro IC50): < 1000 nM
IC50 (p110γ; read-out: PI3K γ In Vitro IC50): < 100 nM
SMILES: Cc1cc(-c2ccc3nc(N)oc3c2)cn2c(C(=O)N3CCOCC3)cnc12 [compound 449]

IC50 (p110α/p85α; [1]): < 1000 nM
IC50 (p110β/p85α; [2]): < 10000 nM
IC50 (p110γ; [3]): < 10000 nM
SMILES: Nc1nc2cc(-c3ccc4ncc(C(=O)N(CCO)CCO)n4c3)ccc2o1 [compound 316]

IC50 (p110α/p85α; read-out: PI3K α IC50): < 1000 nM
IC50 (p110β/p85α; read-out: PI3K β IC50): < 10000 nM
IC50 (p110γ; read-out: PI3K γ IC50): < 10000 nM
SMILES: CN1CCN(C(=O)c2cnc3ccc(-c4ccc5nc(N)oc5c4)cn23)CC1 [compound 145]

IC50 (p110α/p85α; [1]): < 10000 nM
IC50 (p110β/p85α; [2]): < 10000 nM
SMILES: Nc1nc2ccc(-c3ccc4nnc(-c5cccnc5)n4c3)cc2o1 [compound 301]

IC50 (p110α/p85α; read-out: PI3K α IC50): < 100 nM
IC50 (p110β/p85α; read-out: PI3K β IC50): < 10000 nM
IC50 (p110γ; read-out: PI3K γ IC50): < 10000 nM
SMILES: Nc1nc2cc(-c3ccc4ncn(C5CCNCC5)c(=O)c4c3)ccc2o1 [compound 75]

IC50 (p110α/p85α; [1]): < 1000 nM
IC50 (p110β/p85α; [2]): < 1000 nM
IC50 (p110γ; [3]): < 10000 nM
SMILES: Nc1nc2cc(-c3ccc4nnc(-c5ccncc5)n4c3)ccc2o1 [compound 229]

IC50 (p110α/p85α; read-out: PI3K α IC50): < 1000 nM
IC50 (p110β/p85α; read-out: PI3K β IC50): < 10000 nM
IC50 (p110γ; read-out: PI3K γ IC50): < 1000 nM
SMILES: Nc1ncc2cc(-c3ccc4nccc(-c5ccncc5)c4c3)ccc2n1 [compound 9]
